According to US9677094B2, “Process of producing a fermentation product” (NOVOZYMES A/S, priority 2011, dated 2017):

Assays:
Fermentis Red Star yeast = experiment: Ethanol yield in fermentation (SSF) of liquefied corn mash, HPLC; type: cell-based; details: for EtOH: corn mash 32% DS
Procedure: Pyridoxamine (Sigma #P9380) was evaluated for its ability to increase ethanol yields from laboratory-made corn mash when added at the time of liquefaction or at the beginning of fermentation.
Liquefied mashes were made using corn and backset obtained from a commercial ethanol plant in the Midwestern United States (Corn LP, Goldfield, Iowa). All mashes contained 32% Dry Solids (DS) and were liquefied at a pH of 5.8 for 120 minutes in a water bath at 85° C., using the alpha-amylase product Liquozyme SC DS (Novozymes) at a dose of 0.02% w/w of corn. Experimental mashes were treated with pyridoxamine at doses of 10 micrograms/g DS and 50 micrograms/g DS of pyridoxamine in 110 g mash. During liquefaction, the mashes were shaken vigorously every 2 minutes for the first 20 minutes and again at 30 minute intervals until the total liquefaction time equaled 2 hours. All mashes were then frozen overnight.
To each thawed mash, urea was added to a final concentration of 1000 ppm, and penicillin was added to a final concentration of 3 ppm. To test the effects of pyridoxamine in simultaneous saccharification and fermentation (SSF), separate aliquots of liquefied mash were dosed with 10 micrograms/g DS and 50 micrograms/g DS of pyridoxamine, respectively. The mashes were fermented as follows:
For fermentation, between 4 and 5 grams of each mash was added to 6 pre-weighed tubes per treatment. […] One hundred microliters of Fermentis Red Star yeast (5.5 g yeast in 100 mL tap water incubated at 32° C. for 30 minutes) was added to each tube, and the gluocoamylase product Spirizyme Ultra™ (Novozymes) was added to each tube to achieve a dose of 0.5 AGU/g DS.
After 24 hours, one replicate from each mash was sacrificed for HPLC analysis using 50 microliters of 40% v/v H2SO4. The tubes were centrifuged at 1500×g for 10 minutes, and the supernatants were filtered using Whatman syringe filters with 0.45 micron membranes, then diluted 1:5 for HPLC analysis. The remaining samples were sacrificed after 54 hours in the same manner but were subjected to HPLC analysis without dilution. Ethanol and oligosaccharide concentrations were measured by HPLC using an HPX-87H column (Bio-Rad) heated to 65° C. with a mobile phase of 5 mM sulfuric acid at a flow rate of 0.6 ml/min, with refractive index detection at 50° C.

[1] = test system: initial stages of the Maillard reaction; details: conjugates of beta-lactoglobulin with galactose and tagatose; cited from earlier work
[2] = test system: glycation reactions and the formation of advanced glycation end products (AGEs); details: cited from earlier work
[3] = test system: advanced lipoxidation end-products on protein; details: during lipid peroxidation reactions; cited from earlier work
[4] = test system: streptozotocin-induced diabetic and Zucker obese rats; details: cited from earlier work

With `Cc1ncc(CO)c(CN)c1O` [Pyridoxamine] the “ethanol yield versus control” value (Fermentis Red Star yeast; addition at the beginning of SSF (after liquefaction)) was “did not result in an increase in ethanol yield”, the “ethanol yield versus control” value (Fermentis Red Star yeast; addition at the start of corn mash liquefaction, three of the four results (both doses of 10 and one dose of 50 micrograms/g DS)) was “statistically significant increase in ethanol yield” and the EtOH (Fermentis Red Star yeast; experiment 1, dose 10 micrograms/g DS, addition point Liq (liquefaction)) was 12.19 w/v %. The EtOH (Fermentis Red Star yeast; experiment 1, dose 10 micrograms/g DS, addition point SSF) was 11.89 w/v %, the EtOH (Fermentis Red Star yeast; experiment 1, dose 50 micrograms/g DS, addition point Liq (liquefaction)) was 12.23 w/v % and the EtOH (Fermentis Red Star yeast; experiment 1, dose 50 micrograms/g DS, addition point SSF) was 11.79 w/v %. It also gave an EtOH (Fermentis Red Star yeast; experiment 2, dose 10 micrograms/g DS, addition point Liq (liquefaction)) of 12.01 w/v %, an EtOH (Fermentis Red Star yeast; experiment 2, dose 10 micrograms/g DS, addition point SSF) of 11.75 w/v % and an EtOH (Fermentis Red Star yeast; experiment 2, dose 50 micrograms/g DS, addition point Liq (liquefaction)) of 11.86 w/v %. The EtOH (Fermentis Red Star yeast; experiment 2, dose 50 micrograms/g DS, addition point SSF) was 11.75 w/v %, the “effect on the initial stages of the Maillard reaction” value [1] was “inhibitory effect” and the “inhibition of glycation reactions and AGE formation” value [2] was “can inhibit”. For the same compound, the “formation of advanced lipoxidation end-products on protein” value [3] was “inhibits”, the development of nephropathy ([4]; both animal models) was “protects against the development of nephropathy” and the lipid-lowering effect ([4]; streptozotocin-induced diabetic and Zucker obese rats) was “strong lipid-lowering effect”.
